The target in this experiment is T1, LCK KD GST (225-509) (Homo sapiens, UniProt P06239).
T1 construct: LCK KD GST (225-509); GST
In words: LCK Homogenous Time Resolved Fluorescent (HTRF) kinase assay. It is filed as biochemical. Here is the method:
The LCK HTRF assay begins with LCK in the presence of ATP phosphorylating the biotinylated peptide Gastrin. The reaction incubates for 90 min. To quench the assay detection reagents are added which both stop the reaction by diluting out the enzyme and chelating the metals due to the presence of EDTA. Once the detection reagents are added the assay incubates for 30 min to allow for equilibration of the detection reagents.
Buffer conditions are as follows: 50 mM HEPES pH 7.5, 50 mM NaCl, 20 mM MgCl, 5 mM MnCl, 2 mM DTT, 0.05% BSA.
The assay is quenched and stopped with 160 μL of detection reagent. Detection reagents are as follows: Buffer made of 50 mM Tris, pH 7.5, 100 mM NaCl, 3 mM EDTA, 0.05% BSA, 0.1% Tween20.
The assay plate is read in either a Discovery or a RubyStar.

T1 sequence (P06239 225-509): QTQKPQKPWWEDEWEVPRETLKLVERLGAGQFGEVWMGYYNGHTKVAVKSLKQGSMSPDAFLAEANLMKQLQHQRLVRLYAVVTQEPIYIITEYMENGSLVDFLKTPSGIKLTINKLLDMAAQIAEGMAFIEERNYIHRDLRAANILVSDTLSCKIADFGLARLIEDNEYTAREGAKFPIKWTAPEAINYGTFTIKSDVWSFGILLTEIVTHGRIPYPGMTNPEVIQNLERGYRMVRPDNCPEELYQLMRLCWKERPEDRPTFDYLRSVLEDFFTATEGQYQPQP

As for `CNc1nccc(-c2cccnc2Oc2cc(C(=O)Nc3cc(C(C)(C)C)nn3-c3ccccc3)ccc2C)n1` [N-(3-(1,1-dimethylethyl)-1-phenyl-1H-pyrazol-5-yl)-4-methyl-3-((3-(2-(methylamino)-4-pyrimidinyl)-2-pyridinyl)oxy)benzamide], the IC50 was < 1000 nM.

On to `Cc1ccc(C(=O)Nc2cc(C(C)(C)C)nn2-c2ccccc2)cc1Oc1ncccc1-c1ccncn1` [N-(3-(1,1-dimethylethyl)-1-phenyl-1H-pyrazol-5-yl)-4-methyl-3-((3-(4-pyrimidinyl)-2-pyridinyl)oxy)benzamide], for which the IC50 is < 1000 nM.

On to `CNc1ncnc(-c2cccnc2Oc2ccc(F)c(C(=O)Nc3cccc(C(C)(C)C)c3)c2)n1` [N-(3-(1,1-dimethylethyl)phenyl)-2-fluoro-5-((3-(4-(methylamino)-1,3,5-triazin-2-yl)-2-pyridinyl)oxy)benzamide], for which the IC50 was < 1000 nM.

For the compound `CNc1cc(-c2cccnc2Oc2cc(NC(=O)c3cccc(C(C)C)c3)cc(C(F)(F)F)c2)ccn1` [N-(3-((2′-(methylamino)-3,4′-bipyridin-2-yl)oxy)-5-(trifluoromethyl)phenyl)-3-(1-methylethyl)benzamide], the IC50 was < 1000 nM.

As to `CNc1ncnc(-c2cccnc2Oc2cccc(NC(=O)c3cccc(C(C)C)c3)c2)n1` [N-(3-((3-(4-(methylamino)-1,3,5-triazin-2-yl)-2-pyridinyl)oxy)phenyl)-3-(1-methylethyl)benzamide], the IC50 was < 1000 nM.

For the compound `CCOc1cccc(NC(=O)c2ccc(C)c(Nc3ncccc3-c3ccncn3)c2)c1` [N-(3-(ethyloxy)phenyl)-4-methyl-3-((3-(4-pyrimidinyl)-2-pyridinyl)amino)benzamide], the IC50 is < 1000 nM.

In the case of `CNc1nccc(-c2cccnc2Oc2ccc(NC(=O)Nc3cccc(Br)c3)cc2C)n1` [N-(3-bromophenyl)-N′-(3-methyl-4-((3-(2-(methylamino)-4-pyrimidinyl)-2-pyridinyl)oxy)phenyl)urea], the IC50 is < 1000 nM.

For `CNc1nccc(-c2cccnc2Oc2ccc(F)c(C(=O)Nc3cc(C(F)(F)F)cc(Cl)c3N(C)CCCN(C)C)c2)n1` [N-(3-chloro-2-((3-(dimethylamino)propyl)(methyl)amino)-5-(trifluoromethyl)phenyl)-2-fluoro-5-((3-(2-(methylamino)-4-pyrimidinyl)-2-pyridinyl)oxy)benzamide], the IC50 is < 1000 nM.

As for `Cc1ccc(C(=O)Nc2cccc(Cl)c2)cc1Nc1ncccc1-c1ccncn1` [N-(3-chlorophenyl)-4-methyl-3-((3-(4-pyrimidinyl)-2-pyridinyl)amino)benzamide], the IC50 was < 1000 nM.

As for `CNc1nccc(-c2cccnc2Oc2ccc(NC(=O)Nc3cccc(Cl)c3)cc2C)n1` [N-(3-chlorophenyl)-N′-(3-methyl-4-((3-(2-(methylamino)-4-pyrimidinyl)-2-pyridinyl)oxy)phenyl)urea], the IC50 is < 1000 nM.

`CNc1nccc(-c2cccnc2Oc2ccc(NC(=O)Nc3cc(F)cc(C(F)(F)F)c3)cc2C)n1` [N-(3-fluoro-5-(trifluoromethyl)phenyl)-N′-(3-methyl-4-((3-(2-(methylamino)-4-pyrimidinyl)-2-pyridinyl)oxy)phenyl)urea]: the IC50 was < 1000 nM.

Take `CNc1nccc(-c2cccnc2Oc2ccc(NC(=O)Nc3cccc(F)c3)cc2C)n1` [N-(3-fluorophenyl)-N′-(3-methyl-4-((3-(2-(methylamino)-4-pyrimidinyl)-2-pyridinyl)oxy)phenyl)urea]: the IC50 is < 1000 nM.

`CNc1nccc(-c2cccnc2Oc2ccc(NC(=O)Nc3cc(C(F)(F)F)ccc3OCCN3CCCC3)cc2C)n1` [N-(3-methyl-4-((3-(2-(methylamino)-4-pyrimidinyl)-2-pyridinyl)oxy)phenyl)-N′-(2-((2-(1-pyrrolidinyl)ethyl)oxy)-5-(trifluoromethyl)phenyl)urea]: the IC50 is < 1000 nM.

Regarding `CNc1nccc(-c2cccnc2Oc2ccc(NC(=O)Nc3cc(C(F)(F)F)ccc3CN3CCN(C)CC3)cc2C)n1` [N-(3-methyl-4-((3-(2-(methylamino)-4-pyrimidinyl)-2-pyridinyl)oxy)phenyl)-N′-(2-((4-methyl-1-piperazinyl)methyl)-5-(trifluoromethyl)phenyl)urea], the IC50 was < 1000 nM.

As to `CNc1nccc(-c2cccnc2Oc2ccc(NC(=O)Nc3cc(C4CCN(C)CC4)cc(C(F)(F)F)c3)cc2C)n1` [N-(3-methyl-4-((3-(2-(methylamino)-4-pyrimidinyl)-2-pyridinyl)oxy)phenyl)-N′-(3-(1-methyl-4-piperidinyl)-5-(trifluoromethyl)phenyl)urea], the IC50 was < 1000 nM.

Turning to `O=C(Nc1cccc(C(F)(F)F)c1)Nc1ccc(Oc2ncccc2-c2ccncn2)c2ccccc12` [N-(4-((3-(4-pyrimidinyl)-2-pyridinyl)oxy)-1-naphthalenyl)-N′-(3-(trifluoromethyl)phenyl)urea], the IC50 is < 1000 nM.

On to `CNc1ncnc(-c2cccnc2Oc2cc(NC(=O)c3cccc(OC(F)(F)F)c3)ccc2C)n1` [N-(4-methyl-3-((3-(4-(methylamino)-1,3,5-triazin-2-yl)-2-pyridinyl)oxy)phenyl)-3-((trifluoromethyl)oxy)benzamide], for which the IC50 was < 1000 nM.

For `CNc1nccc(-c2cccnc2Oc2cc(C(=O)Nc3cc(C(C)(C)C)ccc3OC)ccc2C)n1` [N-(5-(1,1-dimethylethyl)-2-(methyloxy)phenyl)-4-methyl-3-((3-(2-(methylamino)-4-pyrimidinyl)-2-pyridinyl)oxy)benzamide], the IC50 is < 1000 nM.

As to `CNc1nccc(-c2cccnc2Oc2ccc(NC(=O)Nc3cc(C(C)(C)C)ccc3OC)cc2C)n1` [N-(5-(1,1-dimethylethyl)-2-(methyloxy)phenyl)-N′-(3-methyl-4-((3-(2-(methylamino)-4-pyrimidinyl)-2-pyridinyl)oxy)phenyl)urea], the IC50 is < 1000 nM.

In the case of `CNc1ncnc(-c2cccnc2Oc2cc(C(=O)Nc3cc(C(C)(C)C)on3)ccc2C)n1` [N-(5-(1,1-dimethylethyl)-3-isoxazolyl)-4-methyl-3-((3-(4-(methylamino)-1,3,5-triazin-2-yl)-2-pyridinyl)oxy)benzamide], the IC50 is < 1000 nM.

As to `CNc1nccc(-c2cccnc2Oc2ccc(NC(=O)Nc3cc(Cl)ccc3N(C)CCCN(C)C)cc2C)n1` [N-(5-chloro-2-((3-(dimethylamino)propyl)(methyl)amino)phenyl)-N′-(3-methyl-4-((3-(2-(methylamino)-4-pyrimidinyl)-2-pyridinyl)oxy)phenyl)urea], the IC50 was < 1000 nM.

Take `CNc1nccc(-c2cccnc2Oc2ccc(NC(=O)Nc3cc(Cl)ccc3N(C)[C@@H]3CCN(C)C3)cc2C)n1` [N-(5-chloro-2-(methyl((3R)-1-methyl-3-pyrrolidinyl)amino)phenyl)-N′-(3-methyl-4-((3-(2-(methylamino)-4-pyrimidinyl)-2-pyridinyl)oxy)phenyl)urea]: the IC50 is < 1000 nM.

Regarding `CNc1nccc(-c2cccnc2Oc2ccc(NC(=O)Nc3cc(Cl)ccc3C)cc2C)n1` [N-(5-chloro-2-methylphenyl)-N′-(3-methyl-4-((3-(2-(methylamino)-4-pyrimidinyl)-2-pyridinyl)oxy)phenyl)urea], the IC50 is < 1000 nM.

For the compound `COc1ccc(C2CCCCC2)cc1NC(=O)c1ccc(C)c(Oc2ncccc2-c2ncnc(NCCO)n2)c1` [N-(5-cyclohexyl-2-(methyloxy)phenyl)-3-((3-(4-((2-hydroxyethyl)amino)-1,3,5-triazin-2-yl)-2-pyridinyl)oxy)-4-methylbenzamide], the IC50 was < 1000 nM.

On to `COc1ccc(C2CCCCC2)cc1NC(=O)c1ccc(C)c(Oc2ncccc2-c2ncnc(NCCCCN(C)C)n2)c1` [N-(5-cyclohexyl-2-(methyloxy)phenyl)-3-((3-(4-((4-(dimethylamino)butyl)amino)-1,3,5-triazin-2-yl)-2-pyridinyl)oxy)-4-methylbenzamide], for which the IC50 is < 1000 nM.

For `CCNc1ncnc(-c2cccnc2Oc2cc(C(=O)Nc3cc(C4CCCCC4)ccc3OC)ccc2C)n1` [N-(5-cyclohexyl-2-(methyloxy)phenyl)-3-((3-(4-(ethylamino)-1,3,5-triazin-2-yl)-2-pyridinyl)oxy)-4-methylbenzamide], the IC50 is < 1000 nM.

Consider `CNc1cc(-c2cccnc2Oc2cc(C(=O)Nc3cc(C4CCCCC4)ccc3OC)ccc2C)ccn1` [N-(5-cyclohexyl-2-(methyloxy)phenyl)-4-methyl-3-((2′-(methylamino)-3,4′-bipyridin-2-yl)oxy)benzamide], for which the IC50 was < 1000 nM.

`CNc1nccc(-c2cccnc2Oc2cc(C(=O)Nc3cc(C4CCCCC4)ccc3OC)ccc2C)n1` [N-(5-cyclohexyl-2-(methyloxy)phenyl)-4-methyl-3-((3-(2-(methylamino)-4-pyrimidinyl)-2-pyridinyl)oxy)benzamide]: the IC50 is < 1000 nM.

On to `CNc1ncnc(-c2cccnc2Oc2cc(C(=O)Nc3cc(C4CCCCC4)ccc3OC)ccc2C)n1` [N-(5-cyclohexyl-2-(methyloxy)phenyl)-4-methyl-3-((3-(4-(methylamino)-1,3,5-triazin-2-yl)-2-pyridinyl)oxy)benzamide], for which the IC50 is < 1000 nM.

As for `COc1ccc(C2CCCCC2)cc1NC(=O)c1ccc(C)c(Oc2ncccc2-c2ccncn2)c1` [N-(5-cyclohexyl-2-(methyloxy)phenyl)-4-methyl-3-((3-(4-pyrimidinyl)-2-pyridinyl)oxy)benzamide], the IC50 was < 1000 nM.

For the compound `CNc1nccc(-c2cccnc2Oc2ccc(F)c(C(=O)Nc3cc(C4CC4)ccc3N(C)CCCN(C)C)c2)n1` [N-(5-cyclopropyl-2-((3-(dimethylamino)propyl)(methyl)amino)phenyl)-2-fluoro-5-((3-(2-(methylamino)-4-pyrimidinyl)-2-pyridinyl)oxy)benzamide], the IC50 is < 1000 nM.

The values are drawn from US8476434B2, “Protein kinase modulators and method of use” (Amgen Inc., priority 2004, dated 2013).
